Assays:
[1] = target: T1, isolated guinea pig pulmonary artery (Cavia porcellus, UniProt O70526); test: bradykinin-antagonistic action on the isolated guinea pig pulmonary artery (inhibition of bradykinin-induced contraction); format: cell-based; conditions: contraction by 2×10^-7 mol/l bradykinin; peptides 5×10^-8 -1×10^-5 mol/l for 10 minutes; calculated from dose-effect plots; unit inferred
T1 sequence (O70526 1-372): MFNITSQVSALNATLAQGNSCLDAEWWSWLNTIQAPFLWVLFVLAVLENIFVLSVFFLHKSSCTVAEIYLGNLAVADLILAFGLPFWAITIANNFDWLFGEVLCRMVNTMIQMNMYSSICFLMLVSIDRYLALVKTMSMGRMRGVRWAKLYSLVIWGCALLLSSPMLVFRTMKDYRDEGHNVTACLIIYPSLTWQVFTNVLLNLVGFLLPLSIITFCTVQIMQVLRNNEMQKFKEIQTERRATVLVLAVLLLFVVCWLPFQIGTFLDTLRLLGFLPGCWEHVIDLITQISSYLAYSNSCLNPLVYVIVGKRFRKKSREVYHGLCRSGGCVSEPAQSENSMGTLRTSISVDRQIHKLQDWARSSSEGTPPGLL
Text: The peptides according to the invention have, singly or in combination, a bradykinin-antagonistic action which can be tested in various models (see Handbook of Exp. Pharmacol. Vol. 25, Springer Verlag, 1970, pages 53-55), for example on the isolated rat uterus, on the guinea pig ileum or on the isolated guinea pig pulmonary artery.
(§1) To test the peptides according to the invention on the isolated pulmonary artery, guinea pigs (Dunkin Hartley) weighing 400-450 g are sacrificed by a blow to the back of the neck. The thorax is opened and the pulmonary artery is carefully dissected out. The surrounding tissue is cautiously removed and the pulmonary artery is cut open in a spiral at an angle of 45°. The strip of vessel 2.5 cm long and 3-4 mm wide is fixed in an organ bath which has a capacity of 10 ml and is filled with Ringer solution.
(§2) 95% O2 and 5% CO2 is bubbled through the solution, which is heated to 37° C. The pH is 7.4 and the preload on the strip of vessel is 1.0 g.
(§3) The isometric contraction changes are detected using a lever attachment and an HF modem (position sensor) from Hugo Sachs and are recorded on a potentiometric recorder (BEC, Goerz Metrawatt SE 460).
The experiment is started after equilibration for 1 hour. After the strips of vessel have reached their maximum sensitivity to 2×10^-7 mol/1 bradykinin--bradykinin leads to contraction of the strips of vessel--the peptides are left to act in doses of 5×10^-8 -1×10^-5 mol/l for 10 minutes each and, after renewed addition of bradykinin, the decrease in the effect of bradykinin is compared with the control.

[2] = target: T1, isolated guinea pig pulmonary artery; test: duration of action (T50) on the isolated pulmonary artery after replacement of the peptide-containing buffer; format: cell-based; conditions: time until strips again reach maximum sensitivity to 2×10^-7 mol/l bradykinin after washout; measure of duration of action; found by calculation
Description: as §1, §2, §3
The experiment is started after equilibration for 1 hour. […]
For some selected compounds, the time until the strips of vessel have again reached their maximum sensitivity to 2×10^-7 mol/l bradykinin after replacement of the peptide-containing by a "simple" buffer was also determined in the experimental arrangement described above. […]

[3] = system: carrageenan-induced edema of the rat paw; test: carrageenan-induced edema of the rat paw, systemic administration; format: in vivo; conditions: 15 min before carrageenan, male Sprague-Dawley rats, mean and standard deviation
Description: Antiinflammatory effect after systemic administration: carrageenan-induced edema of the rat paw
The test chosen for the acute systemic antiinflammatory effect is the carrageenan-induced edema of the rat paw by the method described by Winter C. A. et al., Proc. Soc. Exp. Biol. (N.Y.), 111, 544 (1962). Male Sprague-Dawley rats weighing about 170 g in groups of 5 animals receive the substances to be tested subcutaneously dissolved in distilled water (1 ml/kg bodyweight). 15 min later, after measurement of the initial volume of the paw, 0.1 ml of 0.5% strength carrageenan solution is injected under ether anesthesia into the left rear paw. The increase in volume of the swelling is measured 3 and 6 h later, Controls receive only the vehicle. The paw volume is reported in ml (mean and standard deviation).

| Substance | IC50 [1] | T50 (pulmonary artery) [2] | Increase in paw volume after 3 h ([3]; 0.1 mg/kg subcutaneously) | Increase in paw volume after 6 h ([3]; 0.1 mg/kg subcutaneously) | Increase in paw volume after 3 h ([3]; 1.0 mg/kg subcutaneously) | Increase in paw volume after 6 h ([3]; 1.0 mg/kg subcutaneously) |
| --- | --- | --- | --- | --- | --- | --- |
| Fmoc-(4-aminocyclohexylcarbonyl)-D-Arg-Arg-Pro-Hyp-Gly-Thi-Ser-D-Tic-Oic-Arg-OH [Example 15] | 25 nM |  |  |  |  |  |
| Fmoc-Aoc-D-Arg-Arg-Pro-Hyp-Gly-Thia-Ser-D-Tic-Oic-Arg-OH [Example 2] | 8.5 nM | 253.3 min | 0.13 ± 0.04 mL | 0.29 ± 0.08 mL | 0.19 ± 0.06 mL | 0.27 ± 0.06 mL |
| Fmoc-D-Aoc-Arg -Arg-Pro-Hyp-Gly-Thi-Ser-D-Tic-Oic-Arg-OH [Example 7] | 22 nM |  |  |  |  |  |

Reference: patent US5597803A, “Bradykinin peptides with modifications at the N terminus” (Hoechst Aktiengesellschaft, priority 1992, dated 1997)
